Laboratory results as given in US6323365A (Yissum Research Development Company of the Hebrew …, priority 2000, dated 2001).

How the values were obtained:
in vivo = details: rat, po
seizure spread = test: maximal electroshock (MES) test; details: for ED50: Rattus norvegicus, po, read-out: MES anticonvulsant activity (ED50)
seizure threshold = test: subcutaneous metrazol (sc Met) test; details: Rattus norvegicus, po, read-out: sc Met anticonvulsant activity (ED50)
offspring = details: cited from earlier work

SMILES | TD50 (in vivo) [mg/kg] | potency in MES test relative to VPA (seizure spread; MES test, vs VPA) | ED50 (seizure spread) [mg/kg] | PI-MES (protective index): TD50/ED50 (seizure spread; oral, rats, MES) | ED50 (seizure threshold) [mg/kg] | potency in MES test relative to (R)-HP-VPD (seizure spread; MES test, vs (R)-HP-VPD (II)) | SI (stereoselective index) = (R)-HP-VPD/(S)-HP-VPD (seizure spread; MES, oral, rats) | teratogenicity (offspring)
CCCC(CCC)C(=O)NCC(C)O (racemic) [HP-VPD (rac)] | > 250 | five times more potent than VPA | 92 | > 2.7 | > 250 | – | – | –
CCCC(CCC)C(=O)NC[C@@H](C)O [(R)-HP-VPD, N-(2-OH-propyl)valpromide] | > 500 | – | 117 | > 4.3 | – | – | – | –
CCCC(CCC)C(=O)NC[C@H](C)O [(S)-HP-VPD, N-(2-OH-propyl)valpromide] | > 650 | – | 48 | > 13.5 | – | more than two times more potent than (R)-HP-VPD | 2.4 | –
CCCC(CCC)C(=O)O [VPA, Valproic acid, reference compound] | – | – | 490 | – | 180 | – | – | associated with teragenecity
